Experiment in all cases: fluorescence scan of RNA array
Conditions in all cases: 6 mM MgCl2, 20 mM NaCl; 40 mM Tris pH 7.8, 20 °C, 16 h; 20 μM malachite green

The subject of experiment [1] is DsrAsa (RNA, other) GGGAACACAUCAGAUUUCCUGGUGUAACGAAUUUUUUAAGUGCUUCUUGCUUAAGCAAGUUUCAUCCCGACCCCCUCAGGGUCGGGAUUUUUUUUUUUUUUUUUUUUUUAGAGACCGACCAGAAUCAUGCAAGUGCGUAAGAUAGUCGCGGGCCGGGCUCUA
In experiment [2] the test system is rpoSsa (RNA, mRNA element) GGGUUCUGAGUCUUCGGGUGAACAGAGUGCUAACAAAAUGUUGCCGAACAACAAGCCAACUGCGACCACGGUCACAGCGCCUGUAACGGUACCAACAGCAAGCACAACCGAGCCGACUGUCAGCAGUACAUCAACCAGUACGCCUAUCUCCACCUGGACCUGGCCGACUGAGGGCAAAGUGAUCGAAACCUUUGGCGCUUCUGAGGGGGGCAACAAGGGGAUUGAUAUCGCAGGCAGCAAAGGACAGGCAAUUAUCGCGACCGCAGAUGGCCGCGUUGUUUAUGCUGGUAACGCGCUGCGCGGCUACGGUAAUCUGAUUAUCAUCAAACAUAAUGAUGAUUACCUGAGUGCCUACGCCCAUAACGACACAAUGCUGGUCCGGGAACAACAAGAAGUUAAGGCGGGGCAAAAAAUAGCGACCAUGGGUAGCACCGGAACCAGUUCAACACGCUUGCAUUUUGAAAUUCGUUACAAGGGGAAAUCCGUAAACCCGCUGCGUUAUUUGCCGCAGCGAUAAAUCGGCGGAACCAGGCUUUUGCUUGAAUGUUCCGUCAAGGGAUCACGGGUAGGAGCCACCUUAUGAGUCAGAUUUUUUUUUUUUUUUUUUAUGCAUGCACCGACCAGAAUCAUGCAAGUGCGUAAGAUAGUCGCGGGCCGGGGCAUGCAU

Experiment [3] relates to RprAsa (RNA, other) GGGACGGUUAUAAAUCAACAUAUUGAUUUAUAAGCAUGGAAAUCCCCUGAGUGAAACAACGAAUUGCUGUGUGUAGUCUUUGCCCAUCUCCCACGAUGGGCUUUUUUUUUUUUUUUUUUUUUUUUUUGUGUGACCGACCAGAAUCAUGCAAGUGCGUAAGAUAGUCGCGGGCCGGGCACAC
Experiment [4] concerns MGsa (malachite green aptamer–streptavidin aptamer conjugate) (RNA, aptamer) GGAUCCCGACUGGCGAGAGCCAGGUAACGAAUGGAUCCACACACACACACACACACACGCAUGCAUACCGACCAGAAUCAUGCAAGUGCGUAAGAUAGUCGCGGGCCGGGAUGCAUGC
Experiment [5] deals with ompAsa (RNA, mRNA element) GGGCCAGGGGUGCUCGGCAUAAGCCGAAGAUAUCGGUAGAGUUAAUAUUGAGCAGAUCCCCCGGUGAAGGAUUUAACCGUGUUAUCUCGUUGGAGAUAUUCAUGGCGUAUUUUGGAUGAUAACGAGGCGCAAAAAAUGAAAAAGACAGCUAUCGCGAUUGCAGUGGCAAAUAAUAAUAAUAAUAAUAAUAUGCAUGCACCGACCAGAAUCAUGCAAGUGCGUAAGAUAGUCGCGGGCCGGGGCAUGCAU
Experiment [6] concerns MicAsa (RNA, other) GGGGAAAGACGCGCAUUUGUUAUCAUCAUCCCUGAAUUCAGAGAUGAAAUUUUGGCCACUCACGAGUGGCCUUUUACACACACACACACACACACGCAUGCAUACCGACCAGAAUCAUGCAAGUGCGUAAGAUAGUCGCGGGCCGGGAUGCAUGC

Take `CN(C)c1ccc(C(=C2C=CC(=[N+](C)C)C=C2)c2ccccc2)cc1`: the binding result in experiment [1] was “no”; in experiment [2], “no”; in experiment [3], “no”; in experiment [4] it was “yes”; in experiment [5], “no”; in experiment [6], “no”.

Values taken from publication PMC6101487 (2018).
